# Experimental data reported in patent US8846675B2, “N-linked heterocyclic receptor agonists for the treatment of diabetes and metabolic disorders” (Cymabay Therapeutics, Inc., priority 2007, dated 2014).
# Target: T1, IC-GPCR2 (Homo sapiens, UniProt Q8TDV5)
# T1 construct: expressed in transfected cells
# T1 sequence (Q8TDV5 1-335 S309L): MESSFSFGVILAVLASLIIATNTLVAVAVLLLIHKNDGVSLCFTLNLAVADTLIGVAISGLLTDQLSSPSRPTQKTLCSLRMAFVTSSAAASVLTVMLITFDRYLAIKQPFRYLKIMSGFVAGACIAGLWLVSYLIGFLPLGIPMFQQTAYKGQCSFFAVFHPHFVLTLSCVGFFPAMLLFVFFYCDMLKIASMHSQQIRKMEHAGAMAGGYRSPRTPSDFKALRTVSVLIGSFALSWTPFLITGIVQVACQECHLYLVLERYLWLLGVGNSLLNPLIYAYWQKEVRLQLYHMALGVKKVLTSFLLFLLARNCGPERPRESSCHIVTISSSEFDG
# Assay: Stimulation of cAMP in CHO cell line stably expressing IC-GPCR2 (HTRF cAMP dynamic kit)
# Format: cell-based
# Conditions: 3 μM compound; relative to maximal activity of 5-Ethyl-2-{4-[4-(4-tetrazol-1-yl-phenoxymethyl)-thiazol-2-yl]-piperidin-1-yl}-pyrimidine (=100%); IC-GPCR2 stably expressing CHO cells, 30 minutes
# Method in brief: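 CHO cells stably expressing IC-GPCR2, with parental CHO as counter-screen, were exposed to compound (0.00003–10 μM) for 30 min in Ham's F12. Intracellular cAMP read by HTRF competitive immunoassay (665/620 nm ratio). Activity at 3 μM expressed as % of maximal signal from a reference agonist.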
row,Structure (SMILES),% activity at 3 μM [%]
1,"FC(F)(F)c1ccc(N2CCC(n3ncc(COc4ccc(-n5cnnn5)nc4)n3)CC2)nc1 [Example 82, 2-(4-(4-((6-(1H-tetrazol-1-yl)pyridin-3-yloxy)methyl)-2H-1,2,3-triazol-2-yl)piperidin-1-yl)-5-(trifluoromethyl)pyridine]",64.90
2,"CC1CN(C(=O)OC(C)(C)C)CCC1n1ncc(COc2ccc(-n3cnnn3)nc2)n1 (stereo not drawn) [Example 83, tert-Butyl 4-(4-((6-(1H-tetrazol-1-yl)pyridin-3-yloxy)methyl)-2H-1,2,3-triazol-2-yl)-3-methylpiperidine-1-carboxylate]",63.14
3,"CC1CN(c2ncc(C(F)(F)F)cn2)CCC1n1ncc(COc2ccc(-n3cnnn3)nc2)n1 (stereo not drawn) [Example 84, 2-(4-(4-((6-(1H-Tetrazol-1-yl)pyridin-3-yloxy)methyl)-2H-1,2,3-triazol-2-yl)-3-methylpiperidin-1-yl)-5-(trifluoromethyl)pyrimidine]",78.05
4,"CCc1cnc(N2CCC(n3ncc(COc4ccc(-n5cnnn5)nc4)n3)C(C)C2)nc1 (stereo not drawn) [Example 85, 2-(4-(4-((6-(1H-Tetrazol-1-yl)pyridin-3-yloxy)methyl)-2H-1,2,3-triazol-2-yl)-3-methylpiperidin-1-yl)-5-ethylpyrimidine]",76.12
5,"Cc1cnc(N2CCC(n3ncc(COc4ccc(-n5cnnn5)nc4)n3)C(C)C2)nc1 (stereo not drawn) [Example 86, 2-(4-(4-((6-(1H-Tetrazol-1-yl)pyridin-3-yloxy)methyl)-2H-1,2,3-triazol-2-yl)-3-methylpiperidin-1-yl)-5-methylpyrimidine]",71.39
6,"CC1CN(c2ncc(Cl)cn2)CCC1n1ncc(COc2ccc(-n3cnnn3)nc2)n1 (stereo not drawn) [Example 87, 2-(4-(4-((6-(1H-Tetrazol-1-yl)pyridin-3-yloxy)methyl)-2H-1,2,3-triazol-2-yl)-3-methylpiperidin-1-yl)-5-chloropyrimidine]",75.63
7,"Clc1cnc(N2CCC(n3ncc(COc4ccc(-n5cnnn5)cc4)n3)CC2)nc1 [Example 88, 2-(4-(4-((4-(1H-Tetrazol-1-yl)phenoxy)methyl)-2H-1,2,3-triazol-2-yl)piperidin-1-yl)-5-chloropyrimidine]",60.96
8,"Cc1cc(-n2cnnn2)ccc1OCc1cnn(C2CCN(c3ncc(Cl)cn3)CC2)n1 [Example 89, 5-chloro-2-(4-(4-((2-Methyl-4-(1H-tetrazol-1-yl)phenoxy)methyl)-2H-1,2,3-triazol-2-yl)piperidin-1-yl)pyrimidine]",48.60
9,"Cc1sc(OCc2cnn(C3CCN(c4ncc(Cl)cn4)CC3)n2)nc1-c1cccnc1 [Example 90, 2-((2-(1-(5-Chloropyrimidin-2-yl)piperidin-4-yl)-2H-1,2,3-triazol-4-yl)methoxy)-5-methyl-4-(pyridin-3-yl)thiazole]",13.60
10,"Cc1sc(OCc2cnn(C3CCN(c4ncc(Cl)cn4)CC3)n2)nc1-c1ccncc1 [Example 91, 2-((2-(1-(5-Chloropyrimidin-2-yl)piperidin-4-yl)-2H-1,2,3-triazol-4-yl)methoxy)-5-methyl-4-(pyridin-4-yl)thiazole]",5.82
11,"Clc1cnc(N2CCC(n3ncc(COc4ccc(-n5ccnn5)cc4)n3)CC2)nc1 [Example 92, 2-(4-(4-((4-(1H-1,2,3-Triazol-1-yl)phenoxy)methyl)-2H-1,2,3-triazol-2-yl)piperidin-1-yl)-5-chloropyrimidine]",58.28
12,"Clc1cnc(N2CCC(n3ncc(COc4ccc(-n5cncn5)cc4)n3)CC2)nc1 [Example 93, 2-(4-(4-((4-(1H-1,2,4-Triazol-1-yl)phenoxy)methyl)-2H-1,2,3-triazol-2-yl)piperidin-1-yl)-5-chloropyrimidine]",50.84
13,"Clc1cnc(N2CCC(n3ncc(COc4ccc(-n5ccnc5)cc4)n3)CC2)nc1 [Example 94, 2-(4-(4-((4-(1H-Imidazol-1-yl)phenoxy)methyl)-2H-1,2,3-triazol-2-yl)piperidin-1-yl)-5-chloropyrimidine]",49.73

# More lines, now with the values ahead:
row,% activity at 3 μM [%],Structure (SMILES)
1,51.03,"CS(=O)(=O)c1ccc(OCc2cnn(C3CCN(c4ncc(Cl)cn4)CC3)n2)cc1 [Example 95, 5-Chloro-2-(4-(4-((4-(Methylsulfonyl)phenoxy)methyl)-2H-1,2,3-triazol-2-yl)piperidin-1-yl)pyrimidine]"
2,28.90,"Clc1cnc(N2CCC(n3ncc(COc4ccccc4-c4nnco4)n3)CC2)nc1 [Example 96, 5-Chloro-2-{4-[4-(2-[1,3,4]oxadiazol-2-yl-phenoxymethyl)-[1,2,3]triazol-2-yl]-piperidin-1-yl}-pyrimidine]"
3,17.16,"Clc1cnc(N2CCC(n3ncc(COc4ccc(Cl)nc4)n3)CC2)nc1 [Example 98, 5-Chloro-2-{4-[4-(6-chloro-pyridin-3-yloxymethyl)-[1,2,3]triazol-2-yl]-piperidin-1-yl}-pyrimidine]"
4,56.81,"O=C1CCCN1c1ccc(OCc2cnn(C3CCN(c4ncc(C(F)(F)F)cn4)CC3)n2)cc1 [Example 99, 1-(4-{2-[1-(5-Trifluoromethyl-pyrimidin-2-yl)-piperidin-4-yl]-2H-[1,2,3]triazol-4-ylmethoxy}-phenyl)-pyrrolidin-2-one]"
5,10.69,"FC(F)(F)c1cnc(N2CCC(n3ncc(COCc4ccccc4)n3)CC2)nc1 [Example 100, 2-[4-(4-benzyloxymethyl-[1,2,3]triazol-2-yl)-piperidin-1-yl]-5-trifluoromethyl-pyrimidine]"
6,50.67,"CC(C)COC(=O)N1CCC(n2ncc(COc3ccc(-n4cnnn4)cc3F)n2)CC1 [Example 101, Isobutyl 4-(4-((2-fluoro-4-(1H-tetrazol-1-yl)phenoxy)methyl)-2H-1,2,3-triazol-2-yl)piperidine-1-carboxylate]"
7,38.98,"O=C(OCc1ccccc1)N1CCC(n2ncc(COc3ccc(-n4cnnn4)cc3F)n2)CC1 [Example 102, Benzyl 4-(4-((2-fluoro-4-(1H-tetrazol-1-yl)phenoxy)methyl)-2H-1,2,3-triazol-2-yl)piperidine-1-carboxylate]"
8,51.30,"CC(C)COC(=O)N1CCC(n2ncc(COc3ccc(S(C)(=O)=O)cc3F)n2)CC1 [Example 103, Isobutyl 4-(4-((2-fluoro-4-(methylsulfonyl)phenoxy)methyl)-2H-1,2,3-triazol-2-yl)piperidine-1-carboxylate]"
9,28.40,"CS(=O)(=O)c1ccc(OCc2cnn(C3CCN(C(=O)OCc4ccccc4)CC3)n2)c(F)c1 [Example 104, Benzyl 4-(4-((2-fluoro-4-(methylsulfonyl)phenoxy)methyl)-2H-1,2,3-triazol-2-yl)piperidine-1-carboxylate]"
10,10.65,"CCOC(=O)c1cnc(N2CCC(n3ncc(COc4ccc(S(C)(=O)=O)cc4F)n3)CC2)nc1 [Example 105, Ethyl 2-(4-(4-((2-fluoro-4-(methylsulfonyl)phenoxy)methyl)-2H-1,2,3-triazol-2-yl)piperidin-1-yl)pyrimidine-5-carboxylate]"
11,11.46,"CCOC(=O)c1cnc(N2CCC(n3ncc(COc4ccc(-n5cnnn5)cc4F)n3)CC2)nc1 [Example 106, Ethyl 2-(4-(4-((2-fluoro-4-(1H-tetrazol-1-yl)phenoxy)methyl)-2H-1,2,3-triazol-2-yl)piperidin-1-yl)pyrimidine-5-carboxylate]"
